Measurements taken from article PMC10216478, “Development of a Non-Peptide Angiotensin II Type 1 Receptor Ligand by Structural Modification of Olmesartan as a Biased Agonist” (Biomedicines, 2023).
Numbering of substitutions follows the chain as printed.

Tests used:
AT1 Y292A receptor = molecular target: T1, AT1 Y292A receptor (Rattus norvegicus, UniProt P25095, Y292A); experiment: Competition binding study, 125I-[Sar1,Ile8]Ang II, AT1 Y292A receptor; conditions: competition with 125I-[Sar1,Ile8]Ang II, n = 3, mean ± standard error, read-out: Binding affinity (Kd)
T1 construct: expressed in transfected cells; host or cells: COS7
T1 sequence (P25095 1-359 Y292A): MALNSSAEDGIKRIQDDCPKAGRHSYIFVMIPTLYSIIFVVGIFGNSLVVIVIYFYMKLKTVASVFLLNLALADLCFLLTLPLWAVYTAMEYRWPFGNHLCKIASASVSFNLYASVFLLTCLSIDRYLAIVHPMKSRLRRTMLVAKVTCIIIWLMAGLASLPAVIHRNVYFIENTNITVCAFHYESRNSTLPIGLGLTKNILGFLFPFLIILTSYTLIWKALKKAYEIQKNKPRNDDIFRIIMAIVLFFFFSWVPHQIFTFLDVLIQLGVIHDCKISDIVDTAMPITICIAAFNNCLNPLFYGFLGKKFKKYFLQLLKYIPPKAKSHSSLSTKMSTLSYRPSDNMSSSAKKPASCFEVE
Text: We mutated four amino acids in transmembrane (TM) III, VI, and VII in the AT1 receptor (L112A, Q257A, Y292A, and N295A receptors). We determined the mutation sites of the AT1 receptor according to ARB, which produced olmesartan derivatives with different interactions and functions toward the AT1 receptor, as previously reported by Zhang et al., since the additional 4-hydroxybenzyl groups of R781253 and R794847 were predicted to extend to a sub-pocket on the bottom of the AT1 receptor ligand-binding pocket consisting of Leu^112 and Gln^257. In addition, since the biased ligand TRV027 induced changes near the NPxxY motif in TM domain 7 that are related to receptor activation, Tyr^292 and Asn^295 in the AT1 receptor were mutated.
(§1) The synthetic rat AT1 receptor gene, which was cloned in the shuttle expression vector pMT-2, was used for expression and mutagenesis, as described previously. COS7 cells (No. CRL-1651, ATCC, Manassas, VA, USA) were cultured in 10% fetal bovine serum (FBS) and penicillin- and streptomycin-supplemented Dulbecco’s modified Eagle’s essential medium (PS-DMEM) in 5% CO2 at 37 °C. In the experiments, cells were grown without a cell-growth supplement. To express the AT1 receptor protein, 10 µg of purified plasmid DNA per 10^7 cells was used in the transfection. Wild-type and mutated AT1 receptors were transiently transfected into cells using Lipofectamine 2000 liposomal reagent (Roche Applied Science, Penzberg, Germany). Cells were plated and grown and were 70–90% confluent at the time of transfection. We incubated plasmid DNA (10 µg)–lipid (10 µL) complexes for 5 min at room temperature and added and incubated the complexes with cells for 24 h. We then analyzed the parameters in transfected cells. Cell viability was >95% according to trypan blue exclusion analysis in the control experiments. Transfected cells that had been cultured for 48–72 h were harvested. Cell membranes were prepared using the nitrogen Parr bomb disruption or freeze–thaw methods.
The Kd (nM) values of receptor binding were determined with ^125I-[Sar^1, Ile^8]AngII-binding experiments under equilibrium conditions. Binding kinetics were determined following the methods described in the literature. We carried out binding by using ^125I-[Sar^1, Ile^8] AngII (2200 Ci/mmol) and an increasing concentration (10^−11–10^−5 M) of each unlabeled compound. Nonspecific binding of ^125I-[Sar^1, Ile^8] Ang II was determined in the presence of a high concentration (10^−6 M) of unlabeled [Sar^1, Ile^8]. Next, the incubation mixture was separated by vacuum filtration through Whatman GF/C glass filters (Disposable Filter Funnels Grade GF/C, GE Healthcare), and presoaked with 0.1% polyethylenimine. The filter was washed with 3 mL of ice-cold stop buffer (25 mM Tris–HCl, pH 7.4, 1 mM MgCl2). The radioactivity trapped on the filters was quantified using an automatic γ-counter. The percentage (%) of specific binding of ^125I-[Sar^1, Ile^8]Ang II was calculated using the following formula: 100 × (% total binding of ^125I-[Sar^1, Ile^8]Ang II—nonspecific binding of ^125I-[Sar^1, Ile^8]Ang II)/(% total binding of ^125I-[Sar^1, Ile^8]Ang II).

AT1 wild-type receptor = molecular target: T2, AT1 wild-type receptor (Rattus norvegicus, UniProt P25095); experiment: Immunoblotting of ERK 1/2 activation in COS7 cells overexpressing AT1 wild-type receptor; assay type: cell-based; conditions: for ERK1/2 activation: AT1 wild-type receptor, COS7 cells, 1 µM ligands or 0.1 µM Ang II, 10 min, n = 5, vs. (-); for Mode of action in terms of ERK1/2 activation: authors' classification from ERK1/2 activation
T2 construct: expressed in transfected cells; host or cells: COS7
T2 sequence (P25095 1-359): T1 sequence (P25095 1-359 Y292A) with A292Y
Experimental: as §1, with “COS7 cells (No. CRL-1651, ATCC, Manassas, VA, USA) were cultured in 10% fetal bovine serum (FBS) and penicillin- and streptomycin-supplemented Dulbecco’s modified Eagle’s essential medium (PS-DMEM) in 5% CO2 at 37 °C.” left out, “Cell viability was >95% according to trypan blue exclusion analysis in the control experiments.” left out
In in vitro studies, ERK 1/2 activation by 1 µM ligands or 0.1 µM Ang II incubated for 10 min was measured using COS7 cells that overexpressed AT1 wild-type and mutant receptors. ERK activity was measured in cells maintained for 18 h in DMEM containing 0.1% serum. At the end of the stimulation, the culture medium was removed by aspiration, the cells were washed with ice-cold phosphate-buffered saline, and the dishes were frozen in liquid nitrogen. The cells were scraped using a scraper after melting, and the scraped cells were transferred to a tube. We homogenized the cells in lysis buffer plus protease inhibitors and determined the protein concentration using the bicinchoninic acid method. […] We fractionated total proteins using sodium dodecyl sulfate polyacrylamide gel electrophoresis; we then transferred the proteins to a Hybond nitrocellulose membrane and blocked the blotted membranes with 10% bovine serum albumin in tris-buffered saline buffer (50 mM Tris–HCl pH 7.6, 150 mM NaCl) for 1 h at room temperature. […] An enhanced chemiluminescent substrate system (Amersham, Buckinghamshire, UK) was used. The signal was independently quantified by digital image analysis (ImageJ, National Institutes of Health, Bethesda, MD, USA).

Row | Kd (AT1 Y292A receptor) [nM] | ERK1/2 activation (AT1 wild-type receptor) | Mode of action in terms of ERK1/2 activation (AT1 wild-type receptor) | SMILES
1 | 47 ± 15 | did not change ERK1/2 activation | – | CCCc1nc(C(C)(C)O)c(C(=O)O)n1Cc1ccc(-c2ccccc2-c2nnn[nH]2)cc1 [Olmesartan, olmesartan]
2 | 6.3 ± 3.8 | but not R239470, activated ERK1/2 | – | CCCc1nc(C(C)(C)O)c(C(N)=O)n1Cc1ccc(-c2ccccc2-c2nnn[nH]2)cc1 [R239470]
3 | 95 ± 7 | activated ERK1/2 | agonists in terms of ERK1/2 activation | CCCc1nc(C(C)(C)O)c(C(=O)O)n1Cc1ccc(-c2cc(Cc3ccc(O)cc3)ccc2-c2nnn[nH]2)cc1 [R781253]
4 | 30 ± 8 | activated ERK1/2 | agonists in terms of ERK1/2 activation | CCCc1nc(C(C)(C)O)c(C(N)=O)n1Cc1ccc(-c2cc(Cc3ccc(O)cc3)ccc2-c2nnn[nH]2)cc1 [R794847]
